Measurements: ChEMBL document CHEMBL1145324, “Design, synthesis, and biochemical evaluation of novel cruzain inhibitors with potential application in the treatment of Chagas' disease” (Bioorg Med Chem Lett, 2006)

Molecular target: Cruzipain (Trypanosoma cruzi, UniProt P25779)
Experiment: Inhibition of Trypanosoma cruzi recombinant cruzain

Cruzipain, sequence (P25779 whole entry): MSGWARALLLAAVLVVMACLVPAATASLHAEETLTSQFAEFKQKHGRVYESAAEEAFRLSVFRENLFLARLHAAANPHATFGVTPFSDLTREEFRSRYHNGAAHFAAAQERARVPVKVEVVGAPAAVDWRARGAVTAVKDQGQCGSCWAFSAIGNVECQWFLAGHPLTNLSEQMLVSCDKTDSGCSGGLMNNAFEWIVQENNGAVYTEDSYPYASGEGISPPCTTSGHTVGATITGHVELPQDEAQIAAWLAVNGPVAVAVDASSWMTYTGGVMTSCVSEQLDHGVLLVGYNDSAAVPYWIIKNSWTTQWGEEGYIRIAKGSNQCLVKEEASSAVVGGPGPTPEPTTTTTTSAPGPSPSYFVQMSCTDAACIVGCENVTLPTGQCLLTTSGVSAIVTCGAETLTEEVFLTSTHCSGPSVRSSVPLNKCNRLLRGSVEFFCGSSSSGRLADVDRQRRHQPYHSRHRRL

**Q.** How did the IC50 turn out when CC(=O)C1=CCCc2ccccc21 was run?
**A.** 1.36 µM

**Q.** CC/C(=N\NC(N)=S)c1cccc(N)c1 was tested. Which IC50 did it give?
**A.** > 3.64 µM

**Q.** Which IC50 does the source give for NC(=S)N/N=C1\CCOc2ccccc21 here?
**A.** > 17 µM

**Q.** How did the IC50 turn out when C=CC(=O)C1=CCCc2ccc(Br)cc21 was run?
**A.** 0.8 µM

**Q.** With NC(=S)N/N=C1/CCCC(c2ccc(Br)cc2)C1 (configuration not stated) as the molecule, how does the IC50 read?
**A.** > 7 µM

**Q.** How did the IC50 turn out when NC(=S)N/N=C1\CCS(=O)(=O)c2ccccc21 was run?
**A.** > 20 µM

**Q.** With CC/C(=N\NC(N)=S)c1cccc(O)c1 as the molecule, how does the IC50 read?
**A.** > 33 µM

**Q.** With NC(=S)N/N=C1\CCc2ccccc21 as the molecule, how does the IC50 read?
**A.** > 17 µM

**Q.** For NC(=S)N/N=C1\CCOc2ccc(Br)cc21, which IC50 is on record?
**A.** 0.11 µM

**Q.** C/C(=N/NC(N)=S)C1=CCCc2ccccc21 was tested. Which IC50 did it give?
**A.** > 20 µM

**Q.** Which IC50 does the source give for NC(=S)N/N=C1/CCC(c2ccc(Br)cc2)C1 (configuration not stated) here?
**A.** > 5 µM

**Q.** With NC(=S)N/N=C1\CCc2ccccc2O1 as the molecule, how does the IC50 read?
**A.** > 16 µM
